From ChEMBL document CHEMBL4507315 (2021)

How the values were obtained:
[1] = tested on: Tyrosine-protein kinase ABL1 (Homo sapiens), P00519 [T315I]; conditions: Compound concentration 100.0 nM
[2] = tested on: Tyrosine-protein kinase ABL1 (Homo sapiens), P00519 [T315I]; conditions: Compound concentration 100.0 nM; remark: listed apart in the source
[3] = target: Tyrosine-protein kinase ABL2 (Homo sapiens) (UniProt P42684); conditions: Compound concentration 100.0 nM
[4] = target: Activin receptor type-1B (Homo sapiens) (UniProt P36896); conditions: Compound concentration 100.0 nM
[5] = target: Activin receptor type-2A (Homo sapiens) (UniProt P27037); conditions: Compound concentration 100.0 nM
[6] = target: Atypical kinase COQ8A, mitochondrial (Homo sapiens) (UniProt Q8NI60); conditions: Compound concentration 100.0 nM
[7] = target: Ankyrin repeat and protein kinase domain-containing protein 1 (Homo sapiens) (UniProt Q8NFD2); conditions: Compound concentration 100.0 nM
[8] = target: Cyclin-dependent kinase-like 3 (Homo sapiens) (UniProt Q8IVW4); conditions: Compound concentration 100.0 nM
[9] = target: Cyclin-dependent kinase-like 5 (Homo sapiens) (UniProt O76039); conditions: Compound concentration 100.0 nM
[10] = target: Serine/threonine-protein kinase 17B (Homo sapiens) (UniProt O94768); conditions: Compound concentration 100.0 nM
Serine/threonine-protein kinase 17B (Homo sapiens), sequence (O94768 whole entry): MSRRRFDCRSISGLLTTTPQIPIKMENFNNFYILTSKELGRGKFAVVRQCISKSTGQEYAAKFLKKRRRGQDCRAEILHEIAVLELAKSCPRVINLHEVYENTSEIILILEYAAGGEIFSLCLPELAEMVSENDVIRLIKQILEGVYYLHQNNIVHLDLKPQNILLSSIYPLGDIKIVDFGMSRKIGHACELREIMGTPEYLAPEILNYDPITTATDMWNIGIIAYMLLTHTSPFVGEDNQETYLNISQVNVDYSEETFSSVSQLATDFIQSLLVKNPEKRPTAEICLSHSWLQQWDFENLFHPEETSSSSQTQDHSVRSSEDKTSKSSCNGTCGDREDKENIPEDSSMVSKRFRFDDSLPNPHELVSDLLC

[11] = tested on: Epidermal growth factor receptor (Homo sapiens), P00533 [G719C]; conditions: Compound concentration 100.0 nM
[12] = tested on: Epidermal growth factor receptor (Homo sapiens), P00533 [UNDEFINED MUTATION]; conditions: Compound concentration 100.0 nM
[13] = target: Ephrin type-A receptor 3 (Homo sapiens) (UniProt P29320); conditions: Compound concentration 100.0 nM
[14] = target: Ephrin type-B receptor 2 (Homo sapiens) (UniProt P29323); conditions: Compound concentration 100.0 nM
[15] = tested on: Receptor-type tyrosine-protein kinase FLT3 (Homo sapiens), P36888 [R834Q]; conditions: Compound concentration 100.0 nM
[16] = tested on: eIF-2-alpha kinase GCN2 (Homo sapiens), Q9P2K8 [S808G]; conditions: Compound concentration 100.0 nM
[17] = target: Glycogen synthase kinase-3 beta (Homo sapiens) (UniProt P49841); conditions: Compound concentration 100.0 nM
[18] = target: Homeodomain-interacting protein kinase 4 (Homo sapiens) (UniProt Q8NE63); conditions: Compound concentration 100.0 nM
[19] = target: Insulin-like growth factor 1 receptor (Homo sapiens) (UniProt P08069); conditions: Compound concentration 100.0 nM
[20] = target: Inhibitor of nuclear factor kappa-B kinase subunit beta (Homo sapiens) (UniProt O14920); conditions: Compound concentration 100.0 nM
[21] = target: Interleukin-1 receptor-associated kinase 4 (Homo sapiens) (UniProt Q9NWZ3); conditions: Compound concentration 100.0 nM
[22] = tested on: Mast/stem cell growth factor receptor Kit (Homo sapiens), P10721 [L576P]; conditions: Compound concentration 100.0 nM
[23] = target: Serine/threonine-protein kinase MAK (Homo sapiens) (UniProt P20794); conditions: Compound concentration 100.0 nM
[24] = target: Mitogen-activated protein kinase kinase kinase kinase 4 (Homo sapiens) (UniProt O95819); conditions: Compound concentration 100.0 nM
[25] = target: Mitogen-activated protein kinase kinase kinase kinase 5 (Homo sapiens) (UniProt Q9Y4K4); conditions: Compound concentration 100.0 nM
[26] = target: Microtubule-associated serine/threonine-protein kinase 1 (Homo sapiens) (UniProt Q9Y2H9); conditions: Compound concentration 100.0 nM
[27] = target: Dual specificity mitogen-activated protein kinase kinase 2 (Homo sapiens) (UniProt P36507); conditions: Compound concentration 100.0 nM
[28] = tested on: Hepatocyte growth factor receptor (Homo sapiens), P08581 [M1250T]; conditions: Compound concentration 100.0 nM
[29] = target: Serine/threonine-protein kinase 4 (Homo sapiens) (UniProt Q13043); conditions: Compound concentration 100.0 nM
[30] = target: Cyclin-dependent kinase 17 (Homo sapiens) (UniProt Q00537); conditions: Compound concentration 100.0 nM
[31] = target: Platelet-derived growth factor receptor alpha (Homo sapiens) (UniProt P16234); conditions: Compound concentration 100.0 nM
[32] = target: Phosphorylase b kinase gamma catalytic chain, skeletal muscle/heart isoform (Homo sapiens) (UniProt Q16816); conditions: Compound concentration 100.0 nM
Phosphorylase b kinase gamma catalytic chain, skeletal muscle/heart isoform (Homo sapiens), sequence (Q16816 whole entry, looked up, canonical isoform): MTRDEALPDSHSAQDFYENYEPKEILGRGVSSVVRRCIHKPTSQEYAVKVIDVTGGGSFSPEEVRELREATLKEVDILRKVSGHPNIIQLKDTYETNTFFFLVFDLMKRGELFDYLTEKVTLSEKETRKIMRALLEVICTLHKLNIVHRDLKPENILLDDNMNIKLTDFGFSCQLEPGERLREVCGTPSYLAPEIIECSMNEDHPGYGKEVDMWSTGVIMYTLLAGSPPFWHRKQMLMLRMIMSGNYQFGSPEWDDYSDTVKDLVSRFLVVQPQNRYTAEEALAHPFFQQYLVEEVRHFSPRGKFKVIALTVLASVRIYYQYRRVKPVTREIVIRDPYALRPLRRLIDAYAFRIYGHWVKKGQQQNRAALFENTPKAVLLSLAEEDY

[33] = tested on: Phosphatidylinositol 4,5-bisphosphate 3-kinase catalytic subunit alpha isoform (Homo sapiens), P42336 [I800L]; conditions: Compound concentration 100.0 nM
[34] = target: cAMP-dependent protein kinase catalytic subunit alpha (Homo sapiens) (UniProt P17612); conditions: Compound concentration 100.0 nM
[35] = target: Serine/threonine-protein kinase PknB (Mycobacterium tuberculosis) (UniProt P9WI81); conditions: Compound concentration 100.0 nM
Serine/threonine-protein kinase PknB (Mycobacterium tuberculosis), sequence (P9WI81 whole entry): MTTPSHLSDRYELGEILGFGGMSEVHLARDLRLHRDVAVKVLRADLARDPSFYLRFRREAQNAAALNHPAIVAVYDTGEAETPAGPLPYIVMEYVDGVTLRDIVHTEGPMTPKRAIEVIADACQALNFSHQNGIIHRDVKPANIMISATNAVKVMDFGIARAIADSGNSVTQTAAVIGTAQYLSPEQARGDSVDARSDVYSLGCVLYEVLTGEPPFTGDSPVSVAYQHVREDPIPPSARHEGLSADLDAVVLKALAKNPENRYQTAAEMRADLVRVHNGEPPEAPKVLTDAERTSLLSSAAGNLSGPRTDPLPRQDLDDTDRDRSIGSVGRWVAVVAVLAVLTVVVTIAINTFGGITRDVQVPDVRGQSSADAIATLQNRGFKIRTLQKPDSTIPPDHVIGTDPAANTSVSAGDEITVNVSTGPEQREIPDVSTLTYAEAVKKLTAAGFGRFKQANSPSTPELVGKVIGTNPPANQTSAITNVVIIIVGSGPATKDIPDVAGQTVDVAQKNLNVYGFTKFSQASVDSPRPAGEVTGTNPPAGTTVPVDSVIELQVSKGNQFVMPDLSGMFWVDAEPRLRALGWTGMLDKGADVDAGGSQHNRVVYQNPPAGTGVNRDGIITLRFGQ

[36] = target: Serine/threonine-protein kinase PLK3 (Homo sapiens) (UniProt Q9H4B4); conditions: Compound concentration 100.0 nM
[37] = target: Serine/threonine-protein kinase SIK1 (Homo sapiens) (UniProt P57059); conditions: Compound concentration 100.0 nM
[38] = target: Serine/threonine-protein kinase TAO2 (Homo sapiens) (UniProt Q9UL54); conditions: Compound concentration 100.0 nM
[39] = target: High affinity nerve growth factor receptor (Homo sapiens) (UniProt P04629); conditions: Compound concentration 100.0 nM
High affinity nerve growth factor receptor (Homo sapiens), sequence (P04629 33-796 limits assumed): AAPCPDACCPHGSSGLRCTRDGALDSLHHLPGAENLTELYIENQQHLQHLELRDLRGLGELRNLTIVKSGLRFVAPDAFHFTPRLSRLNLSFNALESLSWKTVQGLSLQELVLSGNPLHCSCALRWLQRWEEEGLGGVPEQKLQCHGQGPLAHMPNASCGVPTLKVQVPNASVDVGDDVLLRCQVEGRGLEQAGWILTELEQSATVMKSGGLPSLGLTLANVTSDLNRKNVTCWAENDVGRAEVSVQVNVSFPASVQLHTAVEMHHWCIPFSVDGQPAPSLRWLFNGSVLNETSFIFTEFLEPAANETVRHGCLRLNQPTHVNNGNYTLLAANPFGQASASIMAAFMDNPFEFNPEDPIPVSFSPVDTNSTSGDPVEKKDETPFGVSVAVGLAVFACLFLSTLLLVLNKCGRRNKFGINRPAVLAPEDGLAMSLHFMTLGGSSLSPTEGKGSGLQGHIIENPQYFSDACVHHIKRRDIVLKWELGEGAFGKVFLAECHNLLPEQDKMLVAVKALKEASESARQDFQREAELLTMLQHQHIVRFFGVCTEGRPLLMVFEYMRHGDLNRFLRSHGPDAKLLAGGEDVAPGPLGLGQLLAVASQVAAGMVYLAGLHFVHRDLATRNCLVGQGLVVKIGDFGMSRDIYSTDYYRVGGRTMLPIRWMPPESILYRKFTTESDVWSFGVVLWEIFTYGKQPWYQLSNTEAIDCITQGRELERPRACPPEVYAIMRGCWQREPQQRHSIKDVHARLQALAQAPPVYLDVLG

[40] = target: 5-hydroxytryptamine receptor 1E (Homo sapiens) (UniProt P28566); conditions: Compound concentration 10.0 uM
[41] = target: D(1B) dopamine receptor (Homo sapiens) (UniProt P21918); conditions: Compound concentration 10.0 uM
[42] = target: Kappa-type opioid receptor (Homo sapiens, UniProt P41145); conditions: Compound concentration 10.0 uM
Kappa-type opioid receptor, sequence (P41145 whole entry): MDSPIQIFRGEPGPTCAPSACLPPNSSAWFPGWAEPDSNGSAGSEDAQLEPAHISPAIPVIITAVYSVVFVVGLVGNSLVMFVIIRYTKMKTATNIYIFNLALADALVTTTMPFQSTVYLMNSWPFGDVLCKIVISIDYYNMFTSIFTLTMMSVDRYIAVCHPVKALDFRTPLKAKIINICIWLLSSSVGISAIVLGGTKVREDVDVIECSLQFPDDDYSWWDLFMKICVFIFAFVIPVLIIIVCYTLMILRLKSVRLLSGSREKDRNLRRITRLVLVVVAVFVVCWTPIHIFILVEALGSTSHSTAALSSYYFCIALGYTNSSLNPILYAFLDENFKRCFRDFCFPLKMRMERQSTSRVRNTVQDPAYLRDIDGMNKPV

[43] = target: Alpha-1A adrenergic receptor (Homo sapiens) (UniProt P35348); conditions: Compound concentration 10.0 uM
Alpha-1A adrenergic receptor (Homo sapiens), sequence (P35348 whole entry): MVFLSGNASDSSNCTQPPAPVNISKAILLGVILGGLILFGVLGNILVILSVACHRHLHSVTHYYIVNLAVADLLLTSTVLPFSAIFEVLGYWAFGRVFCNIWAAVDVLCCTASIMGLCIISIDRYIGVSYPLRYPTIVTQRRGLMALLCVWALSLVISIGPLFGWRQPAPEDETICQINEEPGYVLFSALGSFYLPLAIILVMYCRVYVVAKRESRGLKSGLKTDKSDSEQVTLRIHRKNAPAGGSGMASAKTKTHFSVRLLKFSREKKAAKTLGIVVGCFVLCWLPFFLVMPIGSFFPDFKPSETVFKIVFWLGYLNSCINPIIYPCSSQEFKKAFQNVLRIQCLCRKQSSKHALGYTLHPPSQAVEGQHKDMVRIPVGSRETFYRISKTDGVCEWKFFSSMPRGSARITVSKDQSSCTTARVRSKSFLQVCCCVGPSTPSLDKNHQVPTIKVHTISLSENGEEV

[44] = target: Beta-3 adrenergic receptor (Homo sapiens) (UniProt P13945); conditions: Compound concentration 10.0 uM
Beta-3 adrenergic receptor (Homo sapiens), sequence (P13945 whole entry, looked up): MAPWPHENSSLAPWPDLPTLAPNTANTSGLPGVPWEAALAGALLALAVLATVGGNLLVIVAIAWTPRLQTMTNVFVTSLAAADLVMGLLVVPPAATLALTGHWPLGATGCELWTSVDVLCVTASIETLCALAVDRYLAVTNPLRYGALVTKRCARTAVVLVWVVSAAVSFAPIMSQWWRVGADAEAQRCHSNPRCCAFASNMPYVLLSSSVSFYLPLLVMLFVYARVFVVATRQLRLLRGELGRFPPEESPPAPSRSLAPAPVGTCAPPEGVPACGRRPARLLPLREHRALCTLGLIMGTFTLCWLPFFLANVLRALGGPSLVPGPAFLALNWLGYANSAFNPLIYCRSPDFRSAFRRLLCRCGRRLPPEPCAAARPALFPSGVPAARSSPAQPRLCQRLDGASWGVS

[45] = target: Sigma non-opioid intracellular receptor 1 (Homo sapiens) (UniProt Q99720); conditions: Compound concentration 10.0 uM
Sigma non-opioid intracellular receptor 1 (Homo sapiens), sequence (Q99720 whole entry): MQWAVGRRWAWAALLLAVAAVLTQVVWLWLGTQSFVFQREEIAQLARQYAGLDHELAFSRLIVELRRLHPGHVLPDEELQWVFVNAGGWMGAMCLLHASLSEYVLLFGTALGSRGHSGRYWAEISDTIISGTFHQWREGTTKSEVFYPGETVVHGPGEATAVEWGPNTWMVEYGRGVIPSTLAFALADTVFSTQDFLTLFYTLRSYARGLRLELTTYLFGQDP

Tyrosine-protein kinase ABL2 (Homo sapiens), sequence (P42684 whole entry): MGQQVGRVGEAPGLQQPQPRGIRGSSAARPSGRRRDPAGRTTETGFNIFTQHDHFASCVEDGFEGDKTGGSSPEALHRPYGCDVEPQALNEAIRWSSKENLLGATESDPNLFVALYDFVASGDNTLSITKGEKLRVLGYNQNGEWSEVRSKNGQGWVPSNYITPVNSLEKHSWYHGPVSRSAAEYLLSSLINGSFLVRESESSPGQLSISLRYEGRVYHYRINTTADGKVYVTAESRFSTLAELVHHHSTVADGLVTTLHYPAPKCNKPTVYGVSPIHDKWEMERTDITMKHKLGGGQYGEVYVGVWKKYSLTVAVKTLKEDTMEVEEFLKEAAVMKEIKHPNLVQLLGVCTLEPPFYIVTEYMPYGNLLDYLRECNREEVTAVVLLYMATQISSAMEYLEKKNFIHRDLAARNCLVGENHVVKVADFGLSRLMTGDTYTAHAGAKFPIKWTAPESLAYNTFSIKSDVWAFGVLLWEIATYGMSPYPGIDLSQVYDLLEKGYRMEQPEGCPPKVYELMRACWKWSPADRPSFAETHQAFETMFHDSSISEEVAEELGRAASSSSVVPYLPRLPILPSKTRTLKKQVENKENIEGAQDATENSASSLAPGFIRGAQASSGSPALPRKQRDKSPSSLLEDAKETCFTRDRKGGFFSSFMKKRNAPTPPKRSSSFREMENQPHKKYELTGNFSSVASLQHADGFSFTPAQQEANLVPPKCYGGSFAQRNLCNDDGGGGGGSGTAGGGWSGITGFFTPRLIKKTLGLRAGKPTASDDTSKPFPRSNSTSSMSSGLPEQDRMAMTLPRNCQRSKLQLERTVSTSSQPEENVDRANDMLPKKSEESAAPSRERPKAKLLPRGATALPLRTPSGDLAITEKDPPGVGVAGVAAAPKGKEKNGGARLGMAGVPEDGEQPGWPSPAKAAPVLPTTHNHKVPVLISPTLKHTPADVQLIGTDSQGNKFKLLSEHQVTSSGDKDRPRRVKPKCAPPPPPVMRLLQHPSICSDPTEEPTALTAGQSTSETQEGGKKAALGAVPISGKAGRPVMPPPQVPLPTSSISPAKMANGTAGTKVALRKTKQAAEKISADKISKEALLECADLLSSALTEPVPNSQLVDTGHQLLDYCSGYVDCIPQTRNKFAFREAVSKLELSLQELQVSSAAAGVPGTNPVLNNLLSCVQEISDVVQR

`Nc1c(C(=O)NCc2ccc(C(=O)NCCCC3CCCCC3)cc2)cnn1-c1ccccc1` [SR-318] gave a residual activity [1] of 100%, a residual activity [2] of 100% and a residual activity [3] of 100%. The residual activity [4] was 100%, the residual activity [5] was 100% and the residual activity [6] was 100%. The residual activity [7] was 100%, the residual activity [8] was 97% and the residual activity [9] was 100%. The residual activity [10] was 94%, the residual activity [11] was 85% and the residual activity [12] was 84%. For the same molecule, the residual activity [13] was 100%, the residual activity [14] was 100% and the residual activity [15] was 100%. For the same molecule, the residual activity [16] was 100%, the residual activity [17] was 100% and the residual activity [18] was 100%. It also gave a residual activity [19] of 98%, a residual activity [20] of 100% and a residual activity [21] of 100%. For the same molecule, the residual activity [22] was 73%, the residual activity [23] was 100% and the residual activity [24] was 87%. It also gave a residual activity [25] of 100%, a residual activity [26] of 100% and a residual activity [27] of 100%. It also gave a residual activity [28] of 100%, a residual activity [29] of 100% and a residual activity [30] of 78%. It also gave a residual activity [31] of 100%, a residual activity [32] of 90% and a residual activity [33] of 96%. For the same molecule, the residual activity [34] was 100%, the residual activity [35] was 100% and the residual activity [36] was 100%. It also gave a residual activity [37] of 100%, a residual activity [38] of 100% and a residual activity [39] of 100%. For the same molecule, the inhibition [40] was 1%, the inhibition [41] was 28.4% and the inhibition [42] was 38.6%. It also gave an inhibition [43] of 36.9%, an inhibition [44] of 21.8% and an inhibition [45] of 45.1%.
Molecule `O=C(NCCCC1CCCCC1)c1ccc(CNC(=O)c2cnn(-c3ccccc3)c2C(F)(F)F)cc1` [SR-321] has a residual activity [1] of 80%, a residual activity [2] of 100% and a residual activity [3] of 87%. It also gave a residual activity [4] of 100%, a residual activity [5] of 83% and a residual activity [6] of 100%. The residual activity [7] was 100%, the residual activity [8] was 100% and the residual activity [9] was 100%. For the same molecule, the residual activity [10] was 100%, the residual activity [11] was 96% and the residual activity [12] was 100%. The residual activity [13] was 91%, the residual activity [14] was 100% and the residual activity [15] was 100%. For the same molecule, the residual activity [16] was 100%, the residual activity [17] was 100% and the residual activity [18] was 100%. It also gave a residual activity [19] of 100%, a residual activity [20] of 100% and a residual activity [21] of 100%. For the same molecule, the residual activity [22] was 100%, the residual activity [23] was 100% and the residual activity [24] was 81%. The residual activity [25] was 88%, the residual activity [26] was 88% and the residual activity [27] was 93%. For the same molecule, the residual activity [28] was 76%, the residual activity [29] was 100% and the residual activity [30] was 100%. It also gave a residual activity [31] of 92%, a residual activity [32] of 100% and a residual activity [33] of 70%. The residual activity [34] was 100%, the residual activity [35] was 100% and the residual activity [36] was 100%. It also gave a residual activity [37] of 91%, a residual activity [38] of 89% and a residual activity [39] of 100%. The inhibition [40] was -6.92%, the inhibition [41] was 23.2% and the inhibition [42] was 80.2%. It also gave an inhibition [43] of 17.9%, an inhibition [44] of 21.7% and an inhibition [45] of 20.1%.
